Measurements from article PMC9067983, “Identification of highly selective type II kinase inhibitors with chiral peptidomimetic tails” (Journal of Enzyme Inhibition and Medicinal Chemistry, 2022).
Where a SMILES comes first, the peptide text is derived from it. [ ]: non-standard residue; d: D form. The star is where a group is joined. X1 = Cc1ccc(Nc2ncc3c(n2)N(C)C(=O)N(c2cc(C(=O)*)ccc2C)C3)cn1; Aib = CC(C)(N)C(=O)O

Experiments:
TEC = target: T1, TEC (Homo sapiens, UniProt P42680); assay: kinase selectivity profiling; format: biochemical; settings: 10µM ATP, read-out: % inhibition (relative to DMSO)
T1 construct: purchased Reaction Biology Corp
Protocol: (§1) Full panel kinase profiling and kinase IC50 measurement were performed by using Reaction Biology Corp. (San Diego, USA).

IR = target: T2, IR (Homo sapiens, UniProt P06213); assay: kinase selectivity profiling; format: biochemical; settings: 10µM ATP, read-out: % inhibition (relative to DMSO)
T2 construct: purchased Reaction Biology Corp
Protocol: as §1

ALK1/ACVRL1 = target: T3, ALK1/ACVRL1 (Homo sapiens, UniProt P37023); assay: kinase selectivity profiling; format: biochemical; settings: 10µM ATP, read-out: % inhibition (relative to DMSO)
T3 construct: purchased Reaction Biology Corp
Protocol: as §1

NEK9 = target: T4, NEK9 (Homo sapiens, UniProt Q8TD19); assay: kinase selectivity profiling; format: biochemical; settings: 10µM ATP, read-out: % inhibition (relative to DMSO)
T4 construct: purchased Reaction Biology Corp
Protocol: as §1

IRAK1 = target: T5, IRAK1 (Homo sapiens, UniProt P51617); assay: kinase selectivity profiling; format: biochemical; settings: 10µM ATP, read-out: % inhibition (relative to DMSO)
T5 construct: purchased Reaction Biology Corp
Protocol: as §1

NEK4 = target: T6, NEK4 (Homo sapiens, UniProt P51957); assay: kinase selectivity profiling; format: biochemical; settings: 10µM ATP, read-out: % inhibition (relative to DMSO)
T6 construct: purchased Reaction Biology Corp
Protocol: as §1

CK1epsilon = target: T7, CK1epsilon (Homo sapiens, UniProt P49674); assay: kinase selectivity profiling; format: biochemical; settings: 10µM ATP, read-out: % inhibition (relative to DMSO)
T7 construct: purchased Reaction Biology Corp
Protocol: as §1

PAK6 = target: T8, PAK6 (Homo sapiens, UniProt Q9NQU5); assay: kinase selectivity profiling; format: biochemical; settings: 10µM ATP, read-out: % inhibition (relative to DMSO)
T8 construct: purchased Reaction Biology Corp
Protocol: as §1

PKCzeta = target: T9, PKCzeta (Homo sapiens, UniProt Q05513); assay: kinase selectivity profiling; format: biochemical; settings: 10µM ATP, read-out: % inhibition (relative to DMSO)
T9 construct: purchased Reaction Biology Corp
Protocol: as §1

HIPK4 = target: T10, HIPK4 (Homo sapiens, UniProt Q8NE63); assay: kinase selectivity profiling; format: biochemical; settings: 10µM ATP, read-out: % inhibition (relative to DMSO)
T10 construct: purchased Reaction Biology Corp
Protocol: as §1

CDK2/Cyclin A1 = target: T11, CDK2/Cyclin A1 (Homo sapiens, UniProt P24941); assay: kinase selectivity profiling; format: biochemical; settings: 10µM ATP, read-out: % inhibition (relative to DMSO)
T11 construct: purchased Reaction Biology Corp
Protocol: as §1

JNK2 = target: T12, JNK2 (Homo sapiens, UniProt P45984); assay: kinase selectivity profiling; format: biochemical; settings: 10µM ATP, read-out: % inhibition (relative to DMSO)
T12 construct: purchased Reaction Biology Corp
Protocol: as §1

RSK1 = target: T13, RSK1 (Homo sapiens, UniProt Q15418); assay: kinase selectivity profiling; format: biochemical; settings: 10µM ATP, read-out: % inhibition (relative to DMSO)
T13 construct: purchased Reaction Biology Corp
T13 sequence (Q15418 whole entry): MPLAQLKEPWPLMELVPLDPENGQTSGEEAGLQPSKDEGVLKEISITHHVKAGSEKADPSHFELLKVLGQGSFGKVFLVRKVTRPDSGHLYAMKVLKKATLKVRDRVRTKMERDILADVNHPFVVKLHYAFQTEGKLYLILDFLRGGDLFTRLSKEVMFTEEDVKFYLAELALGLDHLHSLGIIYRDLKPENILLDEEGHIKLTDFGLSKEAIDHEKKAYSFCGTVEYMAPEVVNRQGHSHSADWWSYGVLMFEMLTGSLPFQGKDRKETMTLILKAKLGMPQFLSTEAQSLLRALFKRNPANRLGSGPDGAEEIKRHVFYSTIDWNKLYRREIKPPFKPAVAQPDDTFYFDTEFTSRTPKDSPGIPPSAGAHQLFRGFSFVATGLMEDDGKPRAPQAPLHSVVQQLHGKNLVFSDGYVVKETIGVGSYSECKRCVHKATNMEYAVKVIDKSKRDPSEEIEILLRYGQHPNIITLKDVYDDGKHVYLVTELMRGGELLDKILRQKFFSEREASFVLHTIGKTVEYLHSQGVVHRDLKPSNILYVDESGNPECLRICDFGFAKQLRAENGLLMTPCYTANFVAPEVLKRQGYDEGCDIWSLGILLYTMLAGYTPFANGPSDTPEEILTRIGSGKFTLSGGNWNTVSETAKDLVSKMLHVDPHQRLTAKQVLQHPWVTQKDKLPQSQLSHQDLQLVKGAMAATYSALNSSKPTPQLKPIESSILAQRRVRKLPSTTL
Protocol: as §1

MST3/STK24 = target: T14, MST3/STK24 (Homo sapiens, UniProt Q9Y6E0); assay: kinase selectivity profiling; format: biochemical; settings: 10µM ATP, read-out: % inhibition (relative to DMSO)
T14 construct: purchased Reaction Biology Corp
Protocol: as §1

PKCtheta = target: T15, PKCtheta (Homo sapiens, UniProt Q04759); assay: kinase selectivity profiling; format: biochemical; settings: 10µM ATP, read-out: % inhibition (relative to DMSO)
T15 construct: purchased Reaction Biology Corp
Protocol: as §1

CDK1/cyclin B = target: T16, CDK1/cyclin B (Homo sapiens, UniProt P06493); assay: kinase selectivity profiling; format: biochemical; settings: 10µM ATP, read-out: % inhibition (relative to DMSO)
T16 construct: purchased Reaction Biology Corp
T16 sequence (P06493 whole entry): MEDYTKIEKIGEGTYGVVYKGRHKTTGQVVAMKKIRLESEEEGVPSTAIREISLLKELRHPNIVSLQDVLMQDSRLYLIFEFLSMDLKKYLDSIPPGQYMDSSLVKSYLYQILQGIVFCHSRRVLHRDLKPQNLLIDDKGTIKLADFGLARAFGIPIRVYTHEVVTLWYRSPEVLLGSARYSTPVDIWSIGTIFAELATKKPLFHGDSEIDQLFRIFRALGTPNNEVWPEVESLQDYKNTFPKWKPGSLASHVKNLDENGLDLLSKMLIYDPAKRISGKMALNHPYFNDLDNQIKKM
T16 sequence (P14635 whole entry partner): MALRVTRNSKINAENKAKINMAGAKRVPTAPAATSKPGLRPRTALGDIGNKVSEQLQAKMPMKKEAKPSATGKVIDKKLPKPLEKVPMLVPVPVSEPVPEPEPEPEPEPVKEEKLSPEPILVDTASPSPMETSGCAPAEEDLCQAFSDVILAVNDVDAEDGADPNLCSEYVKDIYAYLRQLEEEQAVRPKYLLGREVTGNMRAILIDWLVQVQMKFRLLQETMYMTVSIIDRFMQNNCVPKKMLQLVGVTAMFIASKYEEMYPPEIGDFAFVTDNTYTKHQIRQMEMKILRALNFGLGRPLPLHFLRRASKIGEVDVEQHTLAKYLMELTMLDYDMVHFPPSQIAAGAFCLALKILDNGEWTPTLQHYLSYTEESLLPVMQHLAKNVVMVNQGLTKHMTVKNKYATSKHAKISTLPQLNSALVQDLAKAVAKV
Protocol: as §1

IKKb/IKBKB = target: T17, IKKb/IKBKB (Homo sapiens, UniProt O14920); assay: kinase selectivity profiling; format: biochemical; settings: 10µM ATP, read-out: % inhibition (relative to DMSO)
T17 construct: purchased Reaction Biology Corp
Protocol: as §1

SGK1 = target: T18, SGK1 (Homo sapiens, UniProt O00141); assay: kinase selectivity profiling; format: biochemical; settings: 10µM ATP, read-out: % inhibition (relative to DMSO)
T18 construct: purchased Reaction Biology Corp
T18 sequence (O00141 whole entry): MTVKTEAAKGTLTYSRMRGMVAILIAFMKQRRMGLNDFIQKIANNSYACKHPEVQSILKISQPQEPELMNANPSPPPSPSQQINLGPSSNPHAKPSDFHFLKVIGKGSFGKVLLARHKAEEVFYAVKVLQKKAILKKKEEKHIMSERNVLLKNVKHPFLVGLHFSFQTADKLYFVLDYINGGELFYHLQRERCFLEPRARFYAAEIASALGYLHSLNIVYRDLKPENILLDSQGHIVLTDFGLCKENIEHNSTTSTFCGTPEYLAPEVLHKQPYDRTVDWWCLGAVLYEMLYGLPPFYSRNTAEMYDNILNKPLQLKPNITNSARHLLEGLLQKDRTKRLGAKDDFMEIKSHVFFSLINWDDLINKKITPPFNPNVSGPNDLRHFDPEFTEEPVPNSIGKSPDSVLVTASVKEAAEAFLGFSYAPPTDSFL
Protocol: as §1

PKA = target: T19, PKA (Homo sapiens, UniProt P17612); assay: kinase selectivity profiling; format: biochemical; settings: 10µM ATP, read-out: % inhibition (relative to DMSO)
T19 construct: purchased Reaction Biology Corp
Protocol: as §1

EPHA5 = target: T20, EPHA5 (Homo sapiens, UniProt P54756); assay: kinase selectivity profiling; format: biochemical; settings: 10µM ATP, read-out: % inhibition (relative to DMSO)
T20 construct: purchased Reaction Biology Corp
Protocol: as §1

CDK1/cyclin A = target: T21, CDK1/cyclin A (Homo sapiens, UniProt P06493); assay: kinase selectivity profiling; format: biochemical; settings: 10µM ATP, read-out: % inhibition (relative to DMSO)
T21 construct: purchased Reaction Biology Corp
T21 sequence (P06493 whole entry): as the sequence (P06493 whole entry) above
T21 sequence (P20248 whole entry partner): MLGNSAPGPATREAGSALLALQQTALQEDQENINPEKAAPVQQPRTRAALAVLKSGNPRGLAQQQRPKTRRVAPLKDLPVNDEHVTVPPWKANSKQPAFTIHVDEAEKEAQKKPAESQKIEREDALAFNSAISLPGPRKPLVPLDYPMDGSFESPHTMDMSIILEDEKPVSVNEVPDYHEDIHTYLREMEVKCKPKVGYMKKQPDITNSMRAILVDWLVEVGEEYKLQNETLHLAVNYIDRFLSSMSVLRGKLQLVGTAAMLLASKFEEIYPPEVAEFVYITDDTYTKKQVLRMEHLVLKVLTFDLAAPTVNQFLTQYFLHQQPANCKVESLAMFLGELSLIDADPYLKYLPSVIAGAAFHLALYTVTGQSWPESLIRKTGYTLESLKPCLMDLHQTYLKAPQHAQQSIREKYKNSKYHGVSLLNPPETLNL
Protocol: as §1

MINK/MINK1 = target: T22, MINK/MINK1 (Homo sapiens, UniProt Q8N4C8); assay: kinase selectivity profiling; format: biochemical; settings: 10µM ATP, read-out: % inhibition (relative to DMSO)
T22 construct: purchased Reaction Biology Corp
T22 sequence (Q8N4C8 whole entry): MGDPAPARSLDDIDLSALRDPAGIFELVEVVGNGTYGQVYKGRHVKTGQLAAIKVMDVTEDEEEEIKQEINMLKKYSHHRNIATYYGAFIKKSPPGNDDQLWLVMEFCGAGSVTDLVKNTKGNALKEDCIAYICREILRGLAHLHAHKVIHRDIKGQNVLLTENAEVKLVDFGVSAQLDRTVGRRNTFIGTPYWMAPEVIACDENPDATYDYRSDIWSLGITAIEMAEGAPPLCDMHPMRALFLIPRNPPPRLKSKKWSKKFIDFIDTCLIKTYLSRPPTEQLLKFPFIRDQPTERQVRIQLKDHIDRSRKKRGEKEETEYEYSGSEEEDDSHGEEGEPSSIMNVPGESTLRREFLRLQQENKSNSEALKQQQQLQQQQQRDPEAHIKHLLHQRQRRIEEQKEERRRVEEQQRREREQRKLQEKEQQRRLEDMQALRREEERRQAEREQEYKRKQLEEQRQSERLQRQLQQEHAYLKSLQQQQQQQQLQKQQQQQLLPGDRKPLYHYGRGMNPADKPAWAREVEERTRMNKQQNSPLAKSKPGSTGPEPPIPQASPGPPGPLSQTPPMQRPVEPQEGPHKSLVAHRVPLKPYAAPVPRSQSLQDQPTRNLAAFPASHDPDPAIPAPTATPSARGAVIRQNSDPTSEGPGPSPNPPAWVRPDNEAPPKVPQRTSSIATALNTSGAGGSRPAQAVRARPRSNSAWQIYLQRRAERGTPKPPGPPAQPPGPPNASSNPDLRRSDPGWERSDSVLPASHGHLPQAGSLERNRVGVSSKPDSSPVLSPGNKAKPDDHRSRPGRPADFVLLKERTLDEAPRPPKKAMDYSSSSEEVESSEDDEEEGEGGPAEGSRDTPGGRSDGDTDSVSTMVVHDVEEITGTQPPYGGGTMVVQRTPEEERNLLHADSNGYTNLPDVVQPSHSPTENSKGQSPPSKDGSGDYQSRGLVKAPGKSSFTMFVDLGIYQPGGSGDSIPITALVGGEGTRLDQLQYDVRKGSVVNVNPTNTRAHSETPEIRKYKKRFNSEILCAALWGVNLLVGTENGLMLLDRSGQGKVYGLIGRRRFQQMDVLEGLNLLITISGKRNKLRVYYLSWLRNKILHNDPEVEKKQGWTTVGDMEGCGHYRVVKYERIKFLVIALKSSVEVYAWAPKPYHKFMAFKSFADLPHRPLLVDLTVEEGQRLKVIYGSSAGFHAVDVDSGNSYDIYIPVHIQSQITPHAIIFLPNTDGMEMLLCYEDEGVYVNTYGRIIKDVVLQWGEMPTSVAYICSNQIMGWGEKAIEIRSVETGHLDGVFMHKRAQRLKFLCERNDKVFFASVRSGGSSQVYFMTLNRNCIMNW
Protocol: as §1

DYRK1B = target: T23, DYRK1B (Homo sapiens, UniProt Q9Y463); assay: kinase selectivity profiling; format: biochemical; settings: 10µM ATP, read-out: % inhibition (relative to DMSO)
T23 construct: purchased Reaction Biology Corp
Protocol: as §1

MRCKa/CDC42BPA = target: T24, MRCKa/CDC42BPA (Homo sapiens, UniProt Q5VT25); assay: kinase selectivity profiling; format: biochemical; settings: 10µM ATP, read-out: % inhibition (relative to DMSO)
T24 construct: purchased Reaction Biology Corp
Protocol: as §1

BRK = target: T25, BRK (Homo sapiens, UniProt Q13882); assay: kinase selectivity profiling; format: biochemical; settings: 10µM ATP, read-out: % inhibition (relative to DMSO)
T25 construct: purchased Reaction Biology Corp
T25 sequence (Q13882 whole entry): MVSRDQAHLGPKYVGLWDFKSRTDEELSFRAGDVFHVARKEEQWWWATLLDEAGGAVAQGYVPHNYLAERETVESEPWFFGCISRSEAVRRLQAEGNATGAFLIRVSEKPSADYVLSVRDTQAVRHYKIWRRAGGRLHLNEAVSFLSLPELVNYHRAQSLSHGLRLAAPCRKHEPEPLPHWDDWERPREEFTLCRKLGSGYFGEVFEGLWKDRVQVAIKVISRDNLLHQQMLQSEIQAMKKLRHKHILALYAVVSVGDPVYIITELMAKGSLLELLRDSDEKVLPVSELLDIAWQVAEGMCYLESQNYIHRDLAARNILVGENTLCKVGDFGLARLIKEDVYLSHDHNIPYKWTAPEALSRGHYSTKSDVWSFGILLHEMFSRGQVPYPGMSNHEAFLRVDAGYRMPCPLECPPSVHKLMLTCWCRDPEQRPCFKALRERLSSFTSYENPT
Protocol: as §1

STK38/NDR1 = target: T26, STK38/NDR1 (Homo sapiens, UniProt Q15208); assay: kinase selectivity profiling; format: biochemical; settings: 10µM ATP, read-out: % inhibition (relative to DMSO)
T26 construct: purchased Reaction Biology Corp
Protocol: as §1

TXK = target: T27, TXK (Homo sapiens, UniProt P42681); assay: kinase selectivity profiling; format: biochemical; settings: 10µM ATP, read-out: % inhibition (relative to DMSO)
T27 construct: purchased Reaction Biology Corp
Protocol: as §1

PASK = target: T28, PASK (Homo sapiens, UniProt Q96RG2); assay: kinase selectivity profiling; format: biochemical; settings: 10µM ATP, read-out: % inhibition (relative to DMSO)
T28 construct: purchased Reaction Biology Corp
Protocol: as §1

MELK = target: T29, MELK (Homo sapiens, UniProt Q14680); assay: kinase selectivity profiling; format: biochemical; settings: 10µM ATP, read-out: % inhibition (relative to DMSO)
T29 construct: purchased Reaction Biology Corp
Protocol: as §1

RSK2 = target: T30, RSK2 (Homo sapiens, UniProt P51812); assay: kinase selectivity profiling; format: biochemical; settings: 10µM ATP, read-out: % inhibition (relative to DMSO)
T30 construct: purchased Reaction Biology Corp
Protocol: as §1

KDR/VEGFR2 = target: T31, KDR/VEGFR2 (Homo sapiens, UniProt P35968); assay: kinase selectivity profiling; format: biochemical; settings: 10µM ATP, read-out: % inhibition (relative to DMSO)
T31 construct: purchased Reaction Biology Corp
Protocol: as §1

CLK3 = target: T32, CLK3 (Homo sapiens, UniProt P49761); assay: kinase selectivity profiling; format: biochemical; settings: 10µM ATP, read-out: % inhibition (relative to DMSO)
T32 construct: purchased Reaction Biology Corp
Protocol: as §1

ALK = target: T33, ALK (Homo sapiens, UniProt Q9UM73); assay: kinase selectivity profiling; format: biochemical; settings: 10µM ATP, read-out: % inhibition (relative to DMSO)
T33 construct: purchased Reaction Biology Corp
Protocol: as §1

SRMS = target: T34, SRMS (Homo sapiens, UniProt Q9H3Y6); assay: kinase selectivity profiling; format: biochemical; settings: 10µM ATP, read-out: % inhibition (relative to DMSO)
T34 construct: purchased Reaction Biology Corp
Protocol: as §1

RON/MST1R = target: T35, RON/MST1R (Homo sapiens, UniProt Q04912); assay: kinase selectivity profiling; format: biochemical; settings: 10µM ATP, read-out: % inhibition (relative to DMSO)
T35 construct: purchased Reaction Biology Corp
Protocol: as §1

PKMYT1 = target: T36, PKMYT1 (Homo sapiens, UniProt Q99640); assay: kinase selectivity profiling; format: biochemical; settings: 10µM ATP, read-out: % inhibition (relative to DMSO)
T36 construct: purchased Reaction Biology Corp
Protocol: as §1

DYRK1/DYRK1A = target: T37, DYRK1/DYRK1A (Homo sapiens, UniProt Q13627); assay: kinase selectivity profiling; format: biochemical; settings: 10µM ATP, read-out: % inhibition (relative to DMSO)
T37 construct: purchased Reaction Biology Corp
Protocol: as §1

PLK3 = target: T38, PLK3 (Homo sapiens, UniProt Q9H4B4); assay: kinase selectivity profiling; format: biochemical; settings: 10µM ATP, read-out: % inhibition (relative to DMSO)
T38 construct: purchased Reaction Biology Corp
Protocol: as §1

DYRK2 = target: T39, DYRK2 (Homo sapiens, UniProt Q92630); assay: kinase selectivity profiling; format: biochemical; settings: 10µM ATP, read-out: % inhibition (relative to DMSO)
T39 construct: purchased Reaction Biology Corp
Protocol: as §1

FGFR4 = target: T40, FGFR4 (Homo sapiens, UniProt P22455); assay: kinase selectivity profiling; format: biochemical; settings: 10µM ATP, read-out: % inhibition (relative to DMSO)
T40 construct: purchased Reaction Biology Corp
Protocol: as §1

c-Src = target: T41, c-Src (Homo sapiens, UniProt P12931); assay: In vitro kinase assay (IC50); format: biochemical
T41 construct: purchased Reaction Biology Corp
Protocol: as §1

Lck = target: T42, Lck (Homo sapiens, UniProt P06239); assay: Biochemical IC50 on Lck at Km and 1 mM ATP
T42 construct: purchased Reaction Biology Corp
T42 sequence (P06239 whole entry): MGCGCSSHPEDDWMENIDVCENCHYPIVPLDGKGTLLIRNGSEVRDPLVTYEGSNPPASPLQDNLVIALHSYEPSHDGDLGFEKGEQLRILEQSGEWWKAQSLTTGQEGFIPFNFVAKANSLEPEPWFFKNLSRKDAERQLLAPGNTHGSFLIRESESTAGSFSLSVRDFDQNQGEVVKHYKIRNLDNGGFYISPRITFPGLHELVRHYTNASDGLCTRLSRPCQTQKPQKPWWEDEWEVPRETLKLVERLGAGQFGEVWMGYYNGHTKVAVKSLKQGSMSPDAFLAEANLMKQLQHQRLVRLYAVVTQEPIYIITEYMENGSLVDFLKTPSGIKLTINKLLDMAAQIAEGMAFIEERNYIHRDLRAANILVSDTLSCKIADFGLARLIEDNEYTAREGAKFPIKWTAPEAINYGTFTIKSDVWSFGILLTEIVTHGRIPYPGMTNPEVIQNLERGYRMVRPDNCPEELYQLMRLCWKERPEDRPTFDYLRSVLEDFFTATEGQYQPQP
Protocol: as §1

Cc1ccc(Nc2ncc3c(n2)N(C)C(=O)N(c2cc(C(=O)N[C@H](C(=O)N4CCC[C@H]4C(=O)NC(C)(C)C(=O)N[C@@H](CC(C)C)C(=O)N(C)C)C(C)C)ccc2C)C3)cn1 [7a, (S)-N-(1-(((S)-1-(dimethylamino)-4-methyl-1-oxopentan-2-yl)amino)-2-methyl-1-oxopropan-2-yl)-1-((4-methyl-3-(1-methyl-7-((6-methylpyridin-3-yl)amino)-2-oxo-1,4-dihydropyrimido[4,5-d]pyrimidin-3(2H)-yl)benzoyl)-L-valyl)pyrrolidine-2-carboxamide] (X1-VP[Aib]L-NMe2)
inhibition at 1 µM (TEC): 2%
inhibition at 1 µM (IR): 0%
inhibition at 1 µM (ALK1/ACVRL1): 17%
inhibition at 1 µM (NEK9): 8%
inhibition at 1 µM (IRAK1): 14%
inhibition at 1 µM (NEK4): 0%
inhibition at 1 µM (CK1epsilon): 0%
inhibition at 1 µM (PAK6): 0%
inhibition at 1 µM (PKCzeta): 0%
inhibition at 1 µM (HIPK4): 1%
inhibition at 1 µM (CDK2/Cyclin A1): 1%
inhibition at 1 µM (JNK2): 2%
inhibition at 1 µM (RSK1): 17%
inhibition at 1 µM (MST3/STK24): 0%
inhibition at 1 µM (PKCtheta): 0%
inhibition at 1 µM (CDK1/cyclin B): 7%
inhibition at 1 µM (IKKb/IKBKB): 0%
inhibition at 1 µM (SGK1): 0%
inhibition at 1 µM (PKA): 6%
inhibition at 1 µM (EPHA5): 23%
inhibition at 1 µM (CDK1/cyclin A): 0%
inhibition at 1 µM (MINK/MINK1): 2%
inhibition at 1 µM (DYRK1B): 11%
inhibition at 1 µM (MRCKa/CDC42BPA): 6%
inhibition at 1 µM (BRK): 0%
inhibition at 1 µM (STK38/NDR1): 0%
inhibition at 1 µM (TXK): 0%
inhibition at 1 µM (PASK): 0%
inhibition at 1 µM (MELK): 4%
inhibition at 1 µM (RSK2): 0%
inhibition at 1 µM (KDR/VEGFR2): 12%
inhibition at 1 µM (CLK3): 17%
inhibition at 1 µM (ALK): 0%
inhibition at 1 µM (SRMS): 4%
inhibition at 1 µM (RON/MST1R): 27%
inhibition at 1 µM (PKMYT1): 8%
inhibition at 1 µM (DYRK1/DYRK1A): 20%
inhibition at 1 µM (PLK3): 3%
inhibition at 1 µM (DYRK2): 8%
inhibition at 1 µM (FGFR4): 5%
IC50 (c-Src): 861 nM
IC50 (Lck; ATP conc. 14 µM (Km)): 190 nM
IC50 (Lck; ATP conc. 1 mM): 21000 nM
mode of inhibition (Lck; IC50 at Km vs 1 mM ATP): ATP competitive kinase inhibitors
